Measured values taken from patent publication EP0332216A1 (priority 1988, dated 1989).

What was measured:
bacteria = assay: Anti-microbial activity in vitro (bacteria); type: cell-based; settings: concentration of 500 µg/mℓ
[1] = Acute toxicity in mice (intraperitoneal); settings: mouse, in vivo, ip; JCL/ICR male mice, 5 weeks; administration into the peritoneal cavity; mortality after two weeks; read-out: LD₅₀
yeast = assay: Anti-microbial activity in vitro (yeast); type: cell-based; settings: concentration of 500 µg/mℓ
filamentous fungi = assay: Anti-microbial activity in vitro (filamentous fungi); type: cell-based; settings: concentration of 500 µg/mℓ
Solubility to solvent = type: physicochemical

Compound: CC1=C(C(=O)O)COC1=O [F-0368]
- anti-microbial activity in vitro (bacteria): did not indicate its anti-microbial activity
- LD50 at 336 h [1]: ~200 mg/kg
- anti-microbial activity in vitro (yeast): did not indicate its anti-microbial activity
- anti-microbial activity in vitro (filamentous fungi): did not indicate its anti-microbial activity
- Solubility to Solvent (Solubility to solvent; acetone): Readily soluble
- Solubility to Solvent (Solubility to solvent; benzene): Non-soluble
- Solubility to Solvent (Solubility to solvent; chloroform): Non-soluble
- Solubility to Solvent (Solubility to solvent; ethanol): Readily soluble
- Solubility to Solvent (Solubility to solvent; ethyl acetate): Soluble
- Solubility to Solvent (Solubility to solvent; hexane): Non-soluble
- Solubility to Solvent (Solubility to solvent; methanol): Readily soluble
- Solubility to Solvent (Solubility to solvent; water): Soluble
